Laboratory results taken from ChEMBL document CHEMBL1828521, “New azole antifungal agents with novel modes of action: synthesis and biological studies of new tridentate ligands based on pyrazole and triazole” (2011).
Activity calls are given as the source filed them. No cut-off for these calls is given here.

Assays:
Saccharomyces cerevisiae [1] = experiment: Antifungal activity against Saccharomyces cerevisiae BY4741 expressing Rad52-GFP assessed as increase in appearance of Rad52 foci in G2/M phase by epifluorescence microscopy; type: functional, organism-based
Saccharomyces cerevisiae [2] = experiment: Antifungal activity against wild-type Saccharomyces cerevisiae BY4741 at 1.14 mM after 3 days by serial dilution method; type: functional, organism-based
Saccharomyces cerevisiae [3] = experiment: Antifungal activity against Saccharomyces cerevisiae BY4741 expressing Rad52-GFP assessed as increase in appearance of Rad52 foci in S-phase by epifluorescence microscopy; type: functional, organism-based
Saccharomyces cerevisiae [4] = experiment: Antifungal activity against xrs2-deficient Saccharomyces cerevisiae BY4741 at 0.85 to 1.14 mM after 3 days by serial dilution method; type: functional, organism-based
Saccharomyces cerevisiae [5] = experiment: Antifungal activity against Saccharomyces cerevisiae BY4741 expressing Rad52-GFP assessed as appearance of Rad52 foci by epifluorescence microscopy; type: functional, organism-based
Saccharomyces cerevisiae [6] = experiment: Antifungal activity against Saccharomyces cerevisiae BY4741 expressing Rad52-GFP assessed as increase in appearance of Rad52 foci in G1 phase by epifluorescence microscopy; type: functional, organism-based
Saccharomyces cerevisiae [7] = experiment: Antifungal activity against PKC1-deficient Saccharomyces cerevisiae BY4741 by Haploinsufficiency-profiling assay; type: functional, organism-based
Saccharomyces cerevisiae [8] = experiment: Antifungal activity against Saccharomyces cerevisiae BY4741 assessed as reduction in cell growth at 1 mM; type: functional, organism-based
Saccharomyces cerevisiae [9] = experiment: Induction of cell cycle arrest at G1-phase in Saccharomyces cerevisiae BY4741 at 1 mM after 180 mins by flow cytometric analysis; type: functional, organism-based
Saccharomyces cerevisiae [10] = experiment: Antifungal activity against Saccharomyces cerevisiae BY4741 assessed as inhibition of replication at 1 mM; type: functional, organism-based
Saccharomyces cerevisiae [11] = experiment: Antifungal activity against ski2-deficient Saccharomyces cerevisiae BY4741 at 0.85 to 1.14 mM after 3 days by serial dilution method; type: functional, organism-based
Saccharomyces cerevisiae [12] = experiment: Induction of cell cycle arrest at G1-phase in Saccharomyces cerevisiae BY4741 assessed as accumulation of 1C DNA content at 1 mM after 180 mins by flow cytometric analysis; type: functional, organism-based
Saccharomyces cerevisiae [13] = experiment: Antifungal activity against top3-deficient Saccharomyces cerevisiae BY4741 at 0.85 to 1.14 mM after 3 days by serial dilution method; type: functional, organism-based
Saccharomyces cerevisiae [14] = experiment: Antifungal activity against Saccharomyces cerevisiae BY4741 assessed as large budded cells at 1 mM (reference value: 39.4%); type: functional
Saccharomyces cerevisiae [15] = experiment: Antifungal activity against top3-deficient Saccharomyces cerevisiae BY4741 at 1 to 1.4 mM after 3 days by serial dilution method; type: functional, organism-based
Saccharomyces cerevisiae [16] = experiment: Cell cycle arrest in Saccharomyces cerevisiae BY4741 assessed as accumulation of cells with […] DNA content at G1 phase at 290 uM for 8 hrs by flow cytometric analysis; type: functional, organism-based
Saccharomyces cerevisiae [17] = experiment: Antifungal activity against ski2-deficient Saccharomyces cerevisiae BY4741 at 1 to 1.4 mM after 3 days by serial dilution method; type: functional, organism-based
Saccharomyces cerevisiae [18] = experiment: Antifungal activity against xrs2-deficient Saccharomyces cerevisiae BY4741 at 1 to 1.4 mM after 3 days by serial dilution method; type: functional, organism-based
Saccharomyces cerevisiae [19] = experiment: Antifungal activity against Saccharomyces cerevisiae BY4741 assessed as small budded cells at 1 mM (reference value: 22%); type: functional
Saccharomyces cerevisiae [20] = experiment: Antifungal activity against wild-type Saccharomyces cerevisiae BY4741 at 1.4 mM by serial dilution method; type: functional, organism-based
Saccharomyces cerevisiae [21] = experiment: Antifungal activity against Saccharomyces cerevisiae BY4741 assessed as increase in unbudded cells at 1 mM (reference value: 38.5%); type: functional
Saccharomyces cerevisiae [22] = experiment: Cell cycle arrest at G1-phase in Saccharomyces cerevisiae BY4741 assessed as accumulation of […] DNA content at 290 uM after 180 mins by flow cytometric analysis; type: functional, organism-based

For `CCN(CC)CCCN(Cn1cncn1)Cn1cncn1`, the Activity (Saccharomyces cerevisiae [1]) was “Active”, the Activity (Saccharomyces cerevisiae [2]) was “inactive” and the Activity (Saccharomyces cerevisiae [3]) was “Active”. The Activity (Saccharomyces cerevisiae [4]) was “Active”, the Activity (Saccharomyces cerevisiae [5]) was “Active” and the Activity (Saccharomyces cerevisiae [6]) was “Active”. The Activity (Saccharomyces cerevisiae [7]) was “Active”, the Activity (Saccharomyces cerevisiae [8]) was “Active” and the Activity (Saccharomyces cerevisiae [9]) was “Active”. For the same molecule, the Activity (Saccharomyces cerevisiae [10]) was “Active”, the Activity (Saccharomyces cerevisiae [11]) was “Active” and the Activity (Saccharomyces cerevisiae [12]) was “Active”. For the same molecule, the Activity (Saccharomyces cerevisiae [13]) was “Active”.

With `Cc1cc(C)[nH]n1` the Activity (Saccharomyces cerevisiae [8]) was “inactive”.

For `CCN(CC)CCCN(Cn1nc(C)cc1C)Cn1nc(C)cc1C`, the Activity (Saccharomyces cerevisiae [14]) was 38.7%, the Activity (Saccharomyces cerevisiae [1]) was “Active” and the Activity (Saccharomyces cerevisiae [3]) was “Active”. The Activity (Saccharomyces cerevisiae [5]) was “Active”, the Activity (Saccharomyces cerevisiae [6]) was “Active” and the Activity (Saccharomyces cerevisiae [15]) was “Active”. For the same molecule, the Activity (Saccharomyces cerevisiae [16]) was “Active”, the Activity (Saccharomyces cerevisiae [8]) was “Active” and the Activity (Saccharomyces cerevisiae [17]) was “Active”. For the same molecule, the Activity (Saccharomyces cerevisiae [18]) was “Active”, the Activity (Saccharomyces cerevisiae [19]) was 9.7% and the Activity (Saccharomyces cerevisiae [20]) was “inactive”. The Activity (Saccharomyces cerevisiae [21]) was 51.5% and the Activity (Saccharomyces cerevisiae [22]) was “Active”.

In the case of `Cc1cc(C)n(CO)n1`, the Activity (Saccharomyces cerevisiae [8]) is reported as “Active”.
